Source: PMC7815315, “Atomic structures of respiratory complex III2, complex IV, and supercomplex III2-IV from vascular plants” (eLife, 2021)

Target: T1, VrCIII2 (complex III dimer, cytochrome bc1 complex); cytochrome b (COB) sites (Vigna radiata, UniProt E9KZM1)
T1 construct: native obligate dimer, 10 subunits per monomer, from mitochondria of etiolated hypocotyls; digitonin-extracted, amphipol A8-35; RNA-edited COB; partially purified (sucrose gradient); with Cytochrome c1, heme protein, mitochondrial; Cytochrome b-c1 complex subunit Rieske, mitochondrial; Mitochondrial-processing peptidase subunit alpha; Mitochondrial-processing peptidase subunit beta; Cytochrome b-c1 complex subunit 6; Cytochrome b-c1 complex subunit 7; Cytochrome b-c1 complex subunit 8; Cytochrome b-c1 complex subunit 9; Cytochrome b-c1 complex subunit 10
Assay: spectroscopic cytochrome c reduction at […] nm, pooled gradient fractions
Assay type: biochemical
Settings: 100 uM reduced decylubiquinone, 100 uM equine cyt c, pH 7.8, room temperature

CCCCCCCCCCc1c(C)c(O)c(OC)c(OC)c1O [reduced decylubiquinone]
spectroscopic cytochrome c reduction at 550 nm, pooled gradient fractions: CIII2 respiratory activity (electron transfer from reduced decylubiquinone to cytochrome c)
